# Assays:
# [1] = tested on: CCD 841 Con; assay: CellTiterGlo cell viability assay, CCD 841 Con normal colon cells; type: cell-based; conditions: Homo sapiens, non-transformed colorectal epithelial cells, p53 WT, 72 hours
# Protocol: Cells were seeded in 96-well plates (6×10^3 cells/well). Cells were treated with different concentrations of compounds or dimethyl sulfoxide (DMSO) as a control for 72 hours. The cell viability was assessed by CellTiterGlo bioluminescent cell proliferation assay (Promega), following the manufacturer's protocol. Bioluminescence imaging was measured using the IVIS imager. Percentage of cell viability (mean±SEM) at each dose was calculated against the respective DMSO control. The IC50 values were determined from the sigmoidal dose-response curves using GraphPad Prism.
# [2] = tested on: p53-target genes; assay: Western blotting of p53-target genes (Example 1); type: cell-based, human
# Protocol: After treatment, protein lysates were collected for Western blot analysis. Twenty-five micrograms of protein were used for SDS-PAGE. After primary and secondary antibody incubations, the signal was detected with a chemiluminescent detection kit, followed by autoradiography or Syngen. […] In FIG. 10, p53-null HCT116 cells were treated with P01 and P306, alone or in combination with SiCon or SiTAp73, in various concentrations for 6 hours, and tested for p73 (C.S.), p73 (Bethyl), P63-α, p53, DR5, Puma, P21, and Ran proteins.
# [3] = tested on: PUMA and DR5 in HT29 and HCT116 p53−/− cell lines; assay: Western blot of PUMA and DR5, comparison with regorafenib; type: cell-based, human; conditions: 4 μM, 24-hour time point
# Protocol: After treatment, protein lysates were collected for Western blot analysis. A total of […] of protein was used for SDS-PAGE. After primary and secondary antibody incubations, the signal was detected by a chemiluminescence detection kit, imaged by Syngene (Imgen Technologies). Antibodies for PUMA (for IHC), p53 (Santa Cruz Biotechnology), caspase 8, cleaved caspase 8, caspase 9, caspase 3, cleavage PARP, eIF2α, p-eIF2α (Ser51), CHOP, ATF4, DR5, FOXO3a, p-FOXO3a (Ser253), NF-κB p65, p-NF-κB p65 (Ser536), c-Jun, p-c-Jun (Ser63), JNK, p-JNK (Thr183/Tyr185), PUMA (for WB), c-Myc, phosphor-S62-cMyc (Cell Signaling Technology), Noxa, p21 (Calbiochem), p73 (Bethyl laboratories Inc), Ran (BD Biosciences), […] (Sigma).
# Regorafenib is an FDA-approved drug for treatment of metastatic colorectal cancer, advanced gastrointestinal stromal tumors and hepatocellular carcinoma. Regorafenib inhibits ERK and leads to the induction of PUMA through the GSK3β/NF-κB axis and induces PUMA-mediated apoptosis in colon cancer cell lines (Chen et al., Clin Cancer Res, 2014, 20, 3472-3484). PG3-Oc was compared with regorafenib in the induction of PUMA and DR5. Regorafenib (40 μM and 24 hours treatment) was used as a control, as previously reported (Chen et al., Clin Cancer Res, 2014, 20, 3472-3484).
# [4] = tested on: HT29 tumor xenografts; type: in vivo, mouse
# Protocol: One million HT29 were implanted subcutaneously in the flanks in each athymic nude mouse (female, 4-6 weeks old). The mice were divided at random into two groups and treated with the vehicle (10% DMSO, 20% Kollipher EL in PBS) and PG3-Oc (5 mg/kg, 3 times/week) by intraperitoneal injection when the tumor masses reached a size of 5 to 6 mm. Subsequently, tumor volumes were measured with a caliper and calculated using V=0.5×Length×Width^2. Twenty three days after treatment, the mice were euthanized and tumors were excised. H & E staining and Immunohistochemistry (IHC) of paraffin-embedded tumor and tissue sections were performed at the Fox Chase Cancer Center Histopathology Facility.
# To evaluate the antitumor effects of PG3-Oc in vivo, a human tumor xenograft model was established by subcutaneous injection of human colon cancer cells into nude mice. After the tumor volume reached approximately 50 mm^3, mice were treated by i.p. injection with vehicle or PG3-Oc at 5 mg/kg 3 times weekly for 2 weeks.
# [5] = nude mice, 5 mg/kg i.p. 3 times weekly
compound,measurement,setting,value
"CCCCCCCCOC(=O)CCc1c(C)[nH]c(/C=C2\N=C(c3ccc[nH]3)C=C2OC)c1C [PG3-Oc, Octyl (Z)-3-(5-((4′-methoxy-1H,5′H-[2,2′-bipyrrol]-5′-ylidene)methyl)-2,4-dimethyl-1H-pyrrol-3-yl)propanoate]",IC50,[1],375 nM
same,expression of p53-target genes,[2],induced mutant p53 and ΔNp73 degradation and the expression of p53-target genes
same,level of PUMA and DR5 induced compared to 40 μM regorafenib,[3],much higher level of PUMA and DR5
same,body weight versus vehicle treatment group,"[4]; mouse, in vivo, ip, 5 mg/kg",No significant difference
same,Ki-67 expression in tumors as compared with the vehicle group,[4]; [5],significantly decreased
same,PUMA in tumors as compared with controls,[4]; [5],significantly induced
same,tumor volume as compared with vehicle-treated mice,[4]; [5],significantly reduced

# From patent US12344599B2, “Prodigiosin analogs and methods of use” (Institute For Cancer Research, priority 2016, dated 2025)
